According to patent US12533357B2, “Treatment for acute myeloid leukemia or myelodysplastic syndrome” (UNIVERSITY HEALTH NETWORK, priority 2019, dated 2026):

Assays:
HL-60 = assay: In vitro cytotoxicity (IC50) assay, alamarBlue; assay type: cell-based; settings: HL-60, AML M2
Method: (§1) Cells were seeded in triplicate at 10,000 per 80 uL, into 96-well plates 24 hours before compound overlay and cultured at 37° C. and 5% CO2. Compound (I) was prepared as a 10 mM stock in 100% DMSO and diluted with RPMI 1640 cell growth medium containing 10% FBS such that the final concentrations ranged from 50 pM to 15 uM. Aliquots (20 uL) from each concentration were overlaid to 80 uL of pre-seeded cells to achieve final concentrations of 10 pM to 3 uM. After 3 days, cell viability in each well was assessed by alamarBlue assay according to the manufacturer's instruction (ThermoFisher Scientific). Absorbance was read at 570 nm using a SpectraPlus microplate reader (Molecular Devices Corporation). alamarBlue absorbance values were adjusted by subtracting the average of the baseline readings from untreated cells assessed one day after cell seeding. The percentage (%) of relative inhibition of cell viability was calculated by comparing to DMSO-treated cells. IC50s were calculated using GraphPad PRISM software (GraphPad Software Inc.).

JURKAT = assay: In vitro cytotoxicity (IC50) assay, alamarBlue; assay type: cell-based; settings: T-ALL
Method: as §1

K-562 = assay: In vitro cytotoxicity (IC50) assay, alamarBlue; assay type: cell-based; settings: K-562, CML
Method: as §1

KOPN-8 = assay: In vitro cytotoxicity (IC50) assay, alamarBlue; assay type: cell-based; settings: KOPN-8, B-ALL
Method: as §1

NALM-16 = assay: In vitro cytotoxicity (IC50) assay, alamarBlue; assay type: cell-based; settings: NALM-16, B-ALL
Method: as §1

NALM-6 = assay: In vitro cytotoxicity (IC50) assay, alamarBlue; assay type: cell-based; settings: NALM-6, B-ALL
Method: as §1

NB4 = assay: In vitro cytotoxicity (IC50) assay, alamarBlue; assay type: cell-based; settings: NB4, AML M3
Method: as §1

OCI-AML3 = assay: In vitro cytotoxicity (IC50) assay, alamarBlue; assay type: cell-based; settings: OCI-AML3, AML M4
Method: as §1

OCI-AML4 = assay: In vitro cytotoxicity (IC50) assay, alamarBlue; assay type: cell-based; settings: OCI-AML4, AML M4
Method: as §1

OCI-LY18 = assay: In vitro cytotoxicity (IC50) assay, alamarBlue; assay type: cell-based; settings: OCI-LY18, NHL GCB-DLBCL
Method: as §1

OCI-LY3 = assay: In vitro cytotoxicity (IC50) assay, alamarBlue; assay type: cell-based; settings: OCI-LY3, NHL ABC-DLCBL
Method: as §1

OCI-LY8 = assay: In vitro cytotoxicity (IC50) assay, alamarBlue; assay type: cell-based; settings: OCI-LY8, NHL GCB-DLBCL
Method: as §1

REH = assay: In vitro cytotoxicity (IC50) assay, alamarBlue; assay type: cell-based; settings: B-ALL
Method: as §1

RS4;11 = assay: In vitro cytotoxicity (IC50) assay, alamarBlue; assay type: cell-based; settings: RS4;11, B-ALL
Method: as §1

SU-DHL-8 = assay: In vitro cytotoxicity (IC50) assay, alamarBlue; assay type: cell-based; settings: SU-DHL-8, NHL DLBCL
Method: as §1

TF-1 = assay: In vitro cytotoxicity (IC50) assay, alamarBlue; assay type: cell-based; settings: TF-1, AML M6
Method: as §1

THP-1 = assay: In vitro cytotoxicity (IC50) assay, alamarBlue; assay type: cell-based; settings: THP-1, AML M5
Method: as §1

[1] = system: MOLT-4 acute lymphoblastic leukemia xenograft; assay: MOLT-4 xenograft tumor growth in SCID mice; assay type: in vivo; settings: for complete regressions: 21 days of dosing; for tumors with regression observed / average tumor regression: day 13, fumarate
Method: The human acute lymphoblastic leukemia cell line MOLT-4 was acquired from American Type Culture Collection (Manassas, VA, USA) and grown in RPMI medium containing 100 units/mL penicillin G sodium, 100 μg/mL streptomycin sulfate. The media was supplemented with 10% heat-inactivated fetal bovine serum, 2 mM L-glutamine, and 0.11% sodium pyruvate. The tumor cells were maintained in a humidified environment of 5% CO2 and 95% air at 37° C. Cells were verified to be free of mouse pathogens by IMPACT IV PCR analysis (IDEXX RADIL, Colombia, MO, USA) before injection.
Female SCID mice were purchased from the Ontario Cancer Institute and received and acclimated at the MaRS-TMDT Animal Resources Centre for 2 weeks prior to the start of the experiment. The mice were fed ad libitum autoclaved water and Rodent Lab Diet (Harlan Teklad LM-485) consisting of 19% crude protein, 5% crude fat, and 5% crude fiber. Mice were housed in microisolator cages and maintained in an environment with a 12-hour light cycle at 20-22° C. and 40-60% humidity. On the day of implantation, MOLT-4 cells were harvested and resuspended with serum free DMEM to a concentration of 1×10^8/mL and each mouse was injected subcutaneously with a volume of 0.1 mL containing 1×10^7 MOLT-4 cells in the right rear flank.
Animals were dosed Compound (I) via oral gavage in a volume of 10 mL/kg. The animals were dosed with a 2.25 mm×50 mm curved gavage needle affixed to a 1 mL syringe. Vincristine was dosed by IP injection once per week.
Toxicity was evaluated by body weight measurements and clinical observations. The mice were observed daily for overt signs of any adverse, treatment related side effects, and clinical signs of toxicity. Acceptable toxicity was set at a group mean body weight loss of less than 20% during the study and not more than one treatment related death in a group. Animals were monitored for body weights and tumor growth where tumor volumes were calculated using the formula: tumor volume=width^2×length/2.
The study evaluated Compound (I) fumarate administered by oral gavage for 21 days, either daily at 7.5 mg/kg or 2 days on/5 days off at 13.5 mg/kg, in comparison to the standard-of-care agent vincristine, dosed in 4 weekly intraperitoneal injections of 0.5 mg/kg, in the MOLT-4 […] xenograft model in SCID (severe combined immunodeficiency) mice. Xenografts were established by subcutaneously injecting 1×10^7 tumor cells into the right flank of female SCID mice. Treatment was initiated 9 days following implantation when tumor volumes reached a mean volume of approximately 250 mm^3.

[2] = Homo sapiens, 72 h, 3 days, read-out: Compound (I) IC50
[3] = Day 25, 2-on/5-off arm 13.5 mg/kg

COc1ccc2c(c1)[C@]1(C[C@H]1c1ccc3c(/C=C/c4ccc(CN5C[C@@H](C)O[C@@H](C)C5)cc4)n[nH]c3c1)C(=O)N2 [Compound (I), (1R,2S)-2-(3-((E)-4-(((2S,6R)-2,6-dimethylmorpholino)methyl)styryl)-1H-indazol-6-yl)-5′-methoxyspiro[cyclopropane-1,3′-indolin]-2′-one]
Response to Compound (I) (HL-60): death | IC50 (HL-60; [2]): 8.4 nM | IC50 (JURKAT; [2]): 0.6 nM | Response to Compound (I) (JURKAT): death | Response to Compound (I) (K-562): mitotic defects + | IC50 (KOPN-8; [2]): 0.7 nM | Response to Compound (I) (KOPN-8): death | Response to Compound (I) (NALM-16): mitotic defects + | Response to Compound (I) (NALM-6): mitotic defects + | Response to Compound (I) (NB4): mitotic defects + | Response to Compound (I) (OCI-AML3): mitotic defects + | Response to Compound (I) (OCI-AML4): mitotic defects + | Response to Compound (I) (OCI-LY18): mitotic defects + | Response to Compound (I) (OCI-LY3): mitotic defects + | Response to Compound (I) (OCI-LY8): mitotic defects + | Response to Compound (I) (REH): death | IC50 (REH; [2]): 5.1 nM | Response to Compound (I) (RS4;11): mitotic defects + | IC50 (SU-DHL-8; [2]): 12 nM | Response to Compound (I) (SU-DHL-8): death | IC50 (TF-1; [2]): 2.2 nM | Response to Compound (I) (TF-1): death | IC50 (THP-1; [2]): 1.4 nM | Response to Compound (I) (THP-1): death | average regression [1, 3]: 96% | complete regressions [1, 3]: 6 of 8 | complete regressions ([1]; Day 25, daily dosing arm 7.5 mg/kg): 8 of 8 | overall efficacy in MOLT-4 xenograft model ([1]; SCID mice): very efficacious and potentially curative | tumors with regression observed ([1]; oral 13.5 mg/kg 2-on/5-off): 7 of 8 | average tumor regression ([1]; oral 13.5 mg/kg 2-on/5-off, p=6.5*10^-6): 28% | tumors with regression observed ([1]; oral daily 7.5 mg/kg): 7 of 8 | average tumor regression ([1]; oral daily 7.5 mg/kg, p=2.5*10^-6): 77%
